Earlier results as cited in patent US20230218627A1, “PRESERVATIVE FREE PHARMACEUTICAL COMPOSITION FOR OPHTHALMIC ADMINISTRATION COMPRISING BRIMONIDINE” (PHARMATHEN S.A., priority 2020, published 2023).

Tests used:
[1] = system: alpha-2 adrenergic receptor

SMILES | selectivity for the alpha-2 adrenergic receptor than the alpha-1 adrenergic receptor [1] [fold] | solubility in ethanol (ethanol) | solubility in water (water)
Brc1c(NC2=NCCN2)ccc2nccnc12 [Brimonidine] | 1000 | – | –
CC(C)(C)NC[C@H](O)COc1nsnc1N1CCOCC1.O=C(O)/C=C\C(=O)O [Timolol maleate, (2S)-1-[(1,1-Dimethylethyl)amino]-3-[[4-(morpholin-4-yl)-1,2,5-thiadiazol-3-yl]oxy]propan-2-ol (Z)-butenedioate] | – | soluble | soluble
